Source: paper PMC3857843, “Multiple Transport-Active Binding Sites Are Available for a Single Substrate on Human P-Glycoprotein (ABCB1)” (PLoS ONE, 2013)
One block for each compound: values may come before it.

What was measured:
Y307C mutant Pgp [1] = molecular target: T1, Y307C mutant Pgp (Homo sapiens, UniProt P08183, C1074A/C1125A/C1227A/C137A/C431A/C717A/C956A/Y307C); assay: Transport of fluorescent substrates in BacMam-transduced HeLa cells (flow cytometry); conditions: compared to cysless WT Pgp (taken as 100%), calcein-AM 0.5 µM 10 min, Rh123 […], other substrates 0.5 µM 45 min
Method: (§1) The BacMam-Pgp virus (encoding cysless WT and the mutant Pgps) was added to 2.5 million HeLa cells at a titer of 50-60 viral particles per cell in 3 ml of DMEM and incubated at 37°C [30]. After 1 hr DMEM was added to make a total of 20 ml in the flask and these infected cells were further incubated for 3-4 hrs. 10 mM butyric acid was then added and the cells continued to incubate at 37°C. After 24 hrs, the cells were trypsinized, washed, counted and analyzed by flow cytometry for cell surface expression and the function of the wildtype and mutant Pgps.
(§2) The transport function of cysless WT and mutant Pgps was determined using fluorescent compounds with flow cytometry as previously described. […] Cells were washed with cold PBS and resuspended in PBS containing 0.1% BSA before analysis.

V982C mutant Pgp [2] = molecular target: T2, V982C mutant Pgp (Homo sapiens, UniProt P08183, C1074A/C1125A/C1227A/C137A/C431A/C717A/C956A/V982C); assay: as above; conditions: compared to cysless WT Pgp (taken as 100%), calcein-AM 0.5 µM 10 min, Rh123 […], other substrates 0.5 µM 45 min
Method: as §1, §2

Q725C mutant Pgp [3] = molecular target: T3, Q725C mutant Pgp (Homo sapiens, UniProt P08183, C1074A/C1125A/C1227A/C137A/C431A/C717A/C956A/Q725C); assay: as above; conditions: compared to cysless WT Pgp (taken as 100%), calcein-AM 0.5 µM 10 min, Rh123 […], other substrates 0.5 µM 45 min
T3 sequence (P08183 whole entry C137A/C431A/C717A/Q725C/C956A/C1074A/C1125A/C1227A): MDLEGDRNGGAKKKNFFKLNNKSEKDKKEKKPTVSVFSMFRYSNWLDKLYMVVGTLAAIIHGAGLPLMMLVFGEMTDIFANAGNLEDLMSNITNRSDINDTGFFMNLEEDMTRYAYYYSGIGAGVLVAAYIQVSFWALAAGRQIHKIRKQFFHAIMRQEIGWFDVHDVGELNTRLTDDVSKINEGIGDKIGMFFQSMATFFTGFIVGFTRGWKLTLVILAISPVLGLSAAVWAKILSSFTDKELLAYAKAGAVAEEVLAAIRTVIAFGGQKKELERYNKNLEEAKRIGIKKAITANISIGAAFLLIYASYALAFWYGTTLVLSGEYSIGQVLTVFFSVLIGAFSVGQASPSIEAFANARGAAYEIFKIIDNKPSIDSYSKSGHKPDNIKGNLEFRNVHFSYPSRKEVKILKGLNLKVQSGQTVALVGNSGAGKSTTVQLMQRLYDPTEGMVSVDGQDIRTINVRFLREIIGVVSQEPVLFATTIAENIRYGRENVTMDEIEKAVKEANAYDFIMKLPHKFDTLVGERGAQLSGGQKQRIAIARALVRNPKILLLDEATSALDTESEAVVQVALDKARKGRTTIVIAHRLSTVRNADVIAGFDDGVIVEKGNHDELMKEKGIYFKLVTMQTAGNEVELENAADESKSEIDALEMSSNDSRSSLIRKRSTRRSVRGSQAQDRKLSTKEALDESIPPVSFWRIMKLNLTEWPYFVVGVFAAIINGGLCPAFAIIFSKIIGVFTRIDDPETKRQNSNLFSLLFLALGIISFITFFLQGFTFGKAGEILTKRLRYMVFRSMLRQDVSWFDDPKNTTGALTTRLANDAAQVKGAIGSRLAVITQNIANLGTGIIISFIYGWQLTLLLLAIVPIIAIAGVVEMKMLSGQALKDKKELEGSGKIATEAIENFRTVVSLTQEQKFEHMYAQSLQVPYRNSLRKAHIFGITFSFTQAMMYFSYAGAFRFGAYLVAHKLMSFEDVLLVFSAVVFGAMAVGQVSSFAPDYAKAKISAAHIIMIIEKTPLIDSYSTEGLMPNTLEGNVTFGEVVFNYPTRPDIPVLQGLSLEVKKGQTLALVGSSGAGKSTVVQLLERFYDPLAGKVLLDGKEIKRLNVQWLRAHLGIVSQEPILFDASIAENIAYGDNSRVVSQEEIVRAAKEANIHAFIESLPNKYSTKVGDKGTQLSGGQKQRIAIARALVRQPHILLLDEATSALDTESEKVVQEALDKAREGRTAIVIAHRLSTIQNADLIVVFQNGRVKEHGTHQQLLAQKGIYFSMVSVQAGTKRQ
Method: as §1, §2

F343C mutant Pgp [4] = molecular target: T4, F343C mutant Pgp (Homo sapiens, UniProt P08183, C1074A/C1125A/C1227A/C137A/C431A/C717A/C956A/F343C); assay: as above; conditions: compared to cysless WT Pgp (taken as 100%), calcein-AM 0.5 µM 10 min, Rh123 […], other substrates 0.5 µM 45 min
Method: as §1, §2

F343C/V982C mutant Pgp [5] = molecular target: T5, F343C/V982C mutant Pgp (Homo sapiens, UniProt P08183, C1074A/C1125A/C1227A/C137A/C431A/C717A/C956A/F343C/V982C); assay: as above; conditions: compared to cysless WT Pgp (taken as 100%), calcein-AM 0.5 µM 10 min, Rh123 […], other substrates 0.5 µM 45 min
T5 sequence (P08183 whole entry C137A/F343C/C431A/C717A/C956A/V982C/C1074A/C1125A/C1227A): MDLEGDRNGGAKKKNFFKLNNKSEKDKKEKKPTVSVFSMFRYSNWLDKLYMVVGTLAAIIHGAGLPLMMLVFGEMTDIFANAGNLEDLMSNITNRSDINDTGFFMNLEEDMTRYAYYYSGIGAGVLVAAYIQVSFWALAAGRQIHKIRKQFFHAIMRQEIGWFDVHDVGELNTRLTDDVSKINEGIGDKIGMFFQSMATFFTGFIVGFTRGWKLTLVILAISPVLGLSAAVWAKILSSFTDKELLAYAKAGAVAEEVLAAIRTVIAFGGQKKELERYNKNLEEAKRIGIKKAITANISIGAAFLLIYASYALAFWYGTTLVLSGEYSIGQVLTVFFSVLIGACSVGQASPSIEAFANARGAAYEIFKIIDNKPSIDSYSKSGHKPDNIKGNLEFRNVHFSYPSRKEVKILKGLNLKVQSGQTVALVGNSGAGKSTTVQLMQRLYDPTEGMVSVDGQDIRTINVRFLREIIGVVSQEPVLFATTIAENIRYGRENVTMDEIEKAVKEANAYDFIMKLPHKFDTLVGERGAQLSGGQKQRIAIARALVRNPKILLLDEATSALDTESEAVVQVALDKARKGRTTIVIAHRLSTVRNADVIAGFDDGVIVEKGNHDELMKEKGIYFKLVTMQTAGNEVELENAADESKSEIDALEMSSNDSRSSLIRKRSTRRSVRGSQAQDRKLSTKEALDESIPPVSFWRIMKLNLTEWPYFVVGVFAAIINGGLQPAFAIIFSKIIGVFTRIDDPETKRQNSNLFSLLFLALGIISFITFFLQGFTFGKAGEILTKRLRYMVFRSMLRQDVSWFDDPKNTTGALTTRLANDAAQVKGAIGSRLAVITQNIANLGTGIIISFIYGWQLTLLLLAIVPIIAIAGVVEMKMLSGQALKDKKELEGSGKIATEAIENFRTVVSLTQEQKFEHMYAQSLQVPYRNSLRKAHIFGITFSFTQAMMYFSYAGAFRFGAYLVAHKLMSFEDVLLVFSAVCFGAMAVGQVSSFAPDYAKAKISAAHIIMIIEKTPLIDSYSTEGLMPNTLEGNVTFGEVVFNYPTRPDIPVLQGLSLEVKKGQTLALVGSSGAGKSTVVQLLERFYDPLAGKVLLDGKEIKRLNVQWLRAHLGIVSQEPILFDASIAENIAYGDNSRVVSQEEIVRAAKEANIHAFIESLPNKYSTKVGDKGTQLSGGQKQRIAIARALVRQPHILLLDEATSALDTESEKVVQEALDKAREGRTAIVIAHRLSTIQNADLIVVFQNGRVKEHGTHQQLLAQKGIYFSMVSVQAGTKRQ
Method: as §1, §2

F978C mutant Pgp = F978C mutant Pgp (Homo sapiens, UniProt P08183, C1074A/C1125A/C1227A/C137A/C431A/C717A/C956A/F978C); assay: as above; conditions: compared to cysless WT Pgp (taken as 100%), calcein-AM 0.5 µM 10 min, Rh123 […], other substrates 0.5 µM 45 min
Method: as §1, §2

Q725C/V982C mutant Pgp [6] = molecular target: T6, Q725C/V982C mutant Pgp (Homo sapiens, UniProt P08183, C1074A/C1125A/C1227A/C137A/C431A/C717A/C956A/Q725C/V982C); assay: as above; conditions: compared to cysless WT Pgp (taken as 100%), calcein-AM 0.5 µM 10 min, Rh123 […], other substrates 0.5 µM 45 min
Method: as §1, §2

F728C mutant Pgp [7] = molecular target: T7, F728C mutant Pgp (Homo sapiens, UniProt P08183, C1074A/C1125A/C1227A/C137A/C431A/C717A/C956A/F728C); assay: as above; conditions: compared to cysless WT Pgp (taken as 100%), calcein-AM 0.5 µM 10 min, Rh123 […], other substrates 0.5 µM 45 min
Method: as §1, §2

all mutant Pgps = assay: Vanadate-sensitive ATP hydrolysis of Pgp in crude membranes; assay type: biochemical, human
Method: Crude membranes were prepared as described previously

[8] = molecular target: T8, Y307C/Q725C/V982C mutant Pgp (Homo sapiens, UniProt P08183, C1074A/C1125A/C1227A/C137A/C431A/C717A/C956A/Q725C/V982C/Y307C); assay: Inhibition of IAAP photo-labeling of Pgp in crude membranes
T8 sequence (P08183 whole entry C137A/Y307C/C431A/C717A/Q725C/C956A/V982C/C1074A/C1125A/C1227A): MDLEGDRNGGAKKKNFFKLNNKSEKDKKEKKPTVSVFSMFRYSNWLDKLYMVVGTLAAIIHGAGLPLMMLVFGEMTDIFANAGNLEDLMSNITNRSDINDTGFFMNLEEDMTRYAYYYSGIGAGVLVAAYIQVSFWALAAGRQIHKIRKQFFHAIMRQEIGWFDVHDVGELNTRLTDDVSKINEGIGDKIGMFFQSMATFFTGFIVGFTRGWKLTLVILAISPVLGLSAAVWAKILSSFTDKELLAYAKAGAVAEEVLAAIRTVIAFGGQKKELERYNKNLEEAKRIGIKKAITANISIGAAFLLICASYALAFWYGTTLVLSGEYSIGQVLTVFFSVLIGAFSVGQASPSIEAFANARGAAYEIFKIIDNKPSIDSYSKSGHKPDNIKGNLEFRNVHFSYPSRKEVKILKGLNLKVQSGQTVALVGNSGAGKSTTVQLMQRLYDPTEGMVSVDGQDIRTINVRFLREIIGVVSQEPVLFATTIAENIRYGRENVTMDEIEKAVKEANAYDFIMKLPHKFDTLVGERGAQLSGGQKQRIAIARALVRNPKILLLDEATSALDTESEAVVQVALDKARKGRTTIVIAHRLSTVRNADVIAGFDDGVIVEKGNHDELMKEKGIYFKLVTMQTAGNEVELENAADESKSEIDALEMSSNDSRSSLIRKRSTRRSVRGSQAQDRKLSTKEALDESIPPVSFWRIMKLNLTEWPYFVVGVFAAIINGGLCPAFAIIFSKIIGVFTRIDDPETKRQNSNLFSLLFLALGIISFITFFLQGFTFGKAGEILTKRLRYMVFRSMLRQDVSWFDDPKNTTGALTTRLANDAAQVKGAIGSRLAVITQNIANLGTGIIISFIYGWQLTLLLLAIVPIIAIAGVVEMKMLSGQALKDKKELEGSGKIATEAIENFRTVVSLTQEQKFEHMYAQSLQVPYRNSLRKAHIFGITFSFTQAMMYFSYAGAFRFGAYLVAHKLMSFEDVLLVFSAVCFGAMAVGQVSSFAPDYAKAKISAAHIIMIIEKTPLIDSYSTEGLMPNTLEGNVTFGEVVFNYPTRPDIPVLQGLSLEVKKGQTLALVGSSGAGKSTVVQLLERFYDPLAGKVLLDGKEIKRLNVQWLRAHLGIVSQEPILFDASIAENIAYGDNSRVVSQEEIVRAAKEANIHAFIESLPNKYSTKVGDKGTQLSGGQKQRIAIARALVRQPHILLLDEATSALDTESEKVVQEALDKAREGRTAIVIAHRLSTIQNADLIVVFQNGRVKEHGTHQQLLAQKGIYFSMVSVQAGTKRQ
Method: (§3) Then, samples were photocrosslinked with IAAP at 4°C as described in the Materials and Methods section. Mean values from at least three independent experiments are plotted and error bars depict SD.
(§4) High-Five insect cells (Invitrogen, Carlsbad, CA) were infected with recombinant baculovirus carrying the human MDR1 cDNA cysless WT and various mutant Pgps, with a His6-tag at the C-terminus as described previously. Crude membranes were prepared as described previously
(§5) The crude membranes of High-Five insect cells containing 60-80 µg protein per 100 µL in 50 mM MES-Tris buffer (pH 6.8), were incubated for 10 minutes at 37°C in the absence (control) and presence of compound(s) at indicated concentration.

cysless WT Pgp [9] = molecular target: T9, cysless WT Pgp (Homo sapiens, UniProt P08183, C1074A/C1125A/C1227A/C137A/C431A/C717A/C956A); assay: as above
T9 sequence (P08183 whole entry C137A/C431A/C717A/C956A/C1074A/C1125A/C1227A): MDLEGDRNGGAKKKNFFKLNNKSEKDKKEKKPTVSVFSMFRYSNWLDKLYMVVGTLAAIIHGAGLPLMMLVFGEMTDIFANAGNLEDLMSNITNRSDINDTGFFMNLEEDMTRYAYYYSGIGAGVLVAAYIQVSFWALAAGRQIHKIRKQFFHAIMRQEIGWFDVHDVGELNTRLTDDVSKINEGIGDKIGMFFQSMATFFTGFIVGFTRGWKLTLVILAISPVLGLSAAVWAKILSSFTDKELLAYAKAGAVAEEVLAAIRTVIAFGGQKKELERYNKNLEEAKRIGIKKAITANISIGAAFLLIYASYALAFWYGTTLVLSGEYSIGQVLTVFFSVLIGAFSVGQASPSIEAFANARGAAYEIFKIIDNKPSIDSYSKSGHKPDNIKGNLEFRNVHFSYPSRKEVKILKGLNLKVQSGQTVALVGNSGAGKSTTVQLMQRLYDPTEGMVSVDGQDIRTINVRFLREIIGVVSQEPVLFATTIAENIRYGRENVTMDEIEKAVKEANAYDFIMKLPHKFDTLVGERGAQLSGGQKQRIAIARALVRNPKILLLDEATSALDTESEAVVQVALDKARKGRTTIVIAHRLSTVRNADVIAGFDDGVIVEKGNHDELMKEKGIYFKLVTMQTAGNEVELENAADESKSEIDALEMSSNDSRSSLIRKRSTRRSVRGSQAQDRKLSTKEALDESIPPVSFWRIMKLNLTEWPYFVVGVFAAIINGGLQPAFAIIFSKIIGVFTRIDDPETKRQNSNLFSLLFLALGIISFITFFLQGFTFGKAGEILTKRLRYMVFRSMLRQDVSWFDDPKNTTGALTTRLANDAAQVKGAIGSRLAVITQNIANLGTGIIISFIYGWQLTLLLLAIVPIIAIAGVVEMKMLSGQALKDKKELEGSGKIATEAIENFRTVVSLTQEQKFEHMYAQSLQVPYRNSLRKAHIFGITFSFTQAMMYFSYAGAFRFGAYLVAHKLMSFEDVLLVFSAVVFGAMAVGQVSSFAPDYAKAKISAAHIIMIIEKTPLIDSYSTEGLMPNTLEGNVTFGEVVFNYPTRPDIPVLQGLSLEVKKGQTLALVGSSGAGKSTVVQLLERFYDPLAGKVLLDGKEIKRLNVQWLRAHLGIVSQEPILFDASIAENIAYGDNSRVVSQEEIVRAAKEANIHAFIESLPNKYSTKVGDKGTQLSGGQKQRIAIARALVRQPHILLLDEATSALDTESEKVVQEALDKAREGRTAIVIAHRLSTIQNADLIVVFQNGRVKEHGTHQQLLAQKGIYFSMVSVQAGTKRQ
Method: as §3, §4, §5

Y307C mutant Pgp [10] = molecular target: T1, Y307C mutant Pgp; assay: Vanadate-sensitive ATP hydrolysis of Pgp in crude membranes; conditions: Verapamil 50 µM, QZ59-SSS 1 µM, Valinomycin 10 µM, FSBA 1 mM
Method: (§6) Vanadate-sensitive Pgp-mediated ATP hydrolysis was measured as described in Materials and Methods. […] At least two independent experiments were carried out for each mutant with indicated compounds. Additional information including standard deviations, fold-stimulation or % inhibition, and number of experiments is given in the section (Tables S2 and S3).
as §4
(§7) Crude membranes (10-25 µg protein/100 µ L) from High Five insect cells expressing cysless WT or mutant Pgp were incubated in the presence and absence of sodium orthovanadate (0.3 mM), in a buffer containing 50 mM MES-Tris pH 6.8, 50 mM KCl, 5 mM NaN3, 1 mM EGTA, 1 mM ouabain, 2 mM DTT, and 10 mM MgCl2. […] The reaction was initiated by addition of 5 mM ATP and continued for 20 min at 37°C. […] The reaction was stopped by addition of 100 µ L of 5% SDS and the amount of inorganic phosphate generated was quantified with a colorimetric reaction, as previously described.

V982C mutant Pgp [11] = molecular target: T2, V982C mutant Pgp; assay: as above; conditions: Verapamil 50 µM, QZ59-SSS 1 µM, Valinomycin 10 µM, FSBA 1 mM
Method: as §6, §4, §7

Q725C mutant Pgp [12] = molecular target: T3, Q725C mutant Pgp; assay: as above; conditions: Verapamil 50 µM, QZ59-SSS 1 µM, Valinomycin 10 µM, FSBA 1 mM
Method: as §6, §4, §7

F728C/V982C mutant Pgp = F728C/V982C mutant Pgp (Homo sapiens, UniProt P08183, C1074A/C1125A/C1227A/C137A/C431A/C717A/C956A/F728C/V982C); assay: as above; conditions: Verapamil 50 µM, QZ59-SSS 1 µM, Valinomycin 10 µM, FSBA 1 mM
Method: as §6, §4, §7

[13] = molecular target: T8, Y307C/Q725C/V982C mutant Pgp; assay: as above; conditions: Verapamil 50 µM, QZ59-SSS 1 µM, Valinomycin 10 µM, FSBA 1 mM
Method: as §6, §4, §7

F343C mutant Pgp [14] = molecular target: T4, F343C mutant Pgp; assay: as above; conditions: Verapamil 50 µM, QZ59-SSS 1 µM, FSBA 1 mM
Method: as §6, §4, §7

F343C/V982C mutant Pgp [15] = molecular target: T5, F343C/V982C mutant Pgp; assay: as above; conditions: Verapamil 50 µM, QZ59-SSS 1 µM, Valinomycin 10 µM, FSBA 1 mM
Method: as §6, §4, §7

cysless WT Pgp [16] = molecular target: T9, cysless WT Pgp; assay: as above; conditions: Verapamil 50 µM, QZ59-SSS 1 µM, Valinomycin 10 µM, FSBA 1 mM
Method: as §6, §4, §7

Q725C/V982C mutant Pgp [17] = molecular target: T6, Q725C/V982C mutant Pgp; assay: as above; conditions: Verapamil 50 µM, QZ59-SSS 1 µM, Valinomycin 10 µM, FSBA 1 mM
Method: as §6, §4, §7

F728C mutant Pgp [18] = molecular target: T7, F728C mutant Pgp; assay: as above; conditions: Verapamil 50 µM, QZ59-SSS 1 µM, Valinomycin 10 µM, FSBA 1 mM
Method: as §6, §4, §7

Y307C/V982C mutant Pgp = Y307C/V982C mutant Pgp (Homo sapiens, UniProt P08183, C1074A/C1125A/C1227A/C137A/C431A/C717A/C956A/V982C/Y307C); assay: as above; conditions: Verapamil 50 µM, QZ59-SSS 1 µM, Valinomycin 10 µM, FSBA 1 mM
Method: as §6, §4, §7

Transport function (Y307C mutant Pgp [1]): 90-100%
Transport function (V982C mutant Pgp [2]): 90-100%
Transport function (Q725C mutant Pgp [3]): 90-100%
Transport function (F343C mutant Pgp [4]): 90-100%
Transport function (F343C/V982C mutant Pgp [5]): 90-100%
Transport function (F978C mutant Pgp): 90-100%
Transport function (Q725C/V982C mutant Pgp [6]): 90-100%
Transport function (F728C mutant Pgp [7]): 90-100%
SMILES: COc1cccc2c1C(=O)c1c(O)c3c(c(O)c1C2=O)C[C@@](O)(C(C)=O)C[C@@H]3O[C@H]1C[C@H](N)[C@H](O)[C@H](C)O1 [Dauno, daunorubicin]

SMILES: COc1ccc(CCN(C)CCCC(C#N)(c2ccc(OC)c(OC)c2)C(C)C)cc1OC (stereo not drawn) [Verapamil, verapamil]
Stimulation of ATP hydrolysis (all mutant Pgps; all the mutants, Verapamil 50 µM): 2-4 fold

SMILES: Nc1ncnc2c1ncn2[C@@H]1O[C@H](COC(=O)c2ccc(S(=O)(=O)F)cc2)[C@@H](O)[C@H]1O [FSBA, 5′-fluorosulfonylbenzoyl 5′-adenosine]
Inhibition of IAAP photo-labeling ([8]; Y307C/Q725C/V982C, at higher concentrations): < 30%
Max Inhibition (%) of IAAP-labeling (cysless WT Pgp [9]; Cysless WT, High-Five crude membranes): 85%
IC50 (cysless WT Pgp [9]; read-out: IC50 (µM), inhibition of IAAP-labeling, Cysless WT, High-Five crude membranes): 390 µM
ATP hydrolysis, Average (Y307C mutant Pgp [10]): 14 nmoles Pi/min/mg protein
ATP hydrolysis, Fold-stimulation (Y307C mutant Pgp [10]; relative to basal): 1.9
ATP hydrolysis, Average (V982C mutant Pgp [11]): 28 nmoles Pi/min/mg protein
ATP hydrolysis, Fold-stimulation (V982C mutant Pgp [11]; relative to basal): 2.4
ATP hydrolysis, Average (Q725C mutant Pgp [12]): 10 nmoles Pi/min/mg protein
ATP hydrolysis, Fold-stimulation (Q725C mutant Pgp [12]; relative to basal): 2.0
ATP hydrolysis, Average (F728C/V982C mutant Pgp): 5 nmoles Pi/min/mg protein
ATP hydrolysis, Fold-stimulation (F728C/V982C mutant Pgp; relative to basal): 1.1
ATP hydrolysis, Average [13]: 6 nmoles Pi/min/mg protein
ATP hydrolysis, Average (F343C mutant Pgp [14]): 39 nmoles Pi/min/mg protein
ATP hydrolysis, Fold-stimulation (F343C mutant Pgp [14]; relative to basal): 2.1
ATP hydrolysis, Average (F343C/V982C mutant Pgp [15]): 50 nmoles Pi/min/mg protein
ATP hydrolysis, Fold-stimulation (F343C/V982C mutant Pgp [15]; relative to basal): 2.7
ATP hydrolysis, Average (cysless WT Pgp [16]): 52 nmoles Pi/min/mg protein
ATP hydrolysis, Fold-stimulation (cysless WT Pgp [16]; relative to basal): 2.4
ATP hydrolysis, Average (Q725C/V982C mutant Pgp [17]): 12 nmoles Pi/min/mg protein
ATP hydrolysis, Fold-stimulation (Q725C/V982C mutant Pgp [17]; relative to basal): 2.3
ATP hydrolysis, Average (F728C mutant Pgp [18]): 11 nmoles Pi/min/mg protein
ATP hydrolysis, Fold-stimulation (F728C mutant Pgp [18]; relative to basal): 1.8
ATP hydrolysis, Average (Y307C/V982C mutant Pgp): 20 nmoles Pi/min/mg protein
ATP hydrolysis, Fold-stimulation (Y307C/V982C mutant Pgp; relative to basal): 2.1

SMILES: CC(C)[C@@H]1NC(=O)c2csc(n2)[C@H](C(C)C)NC(=O)c2csc(n2)[C@H](C(C)C)NC(=O)c2csc1n2 [QZ59-SSS]
Inhibition of IAAP photo-labeling [8]: < 30%
IC50 (cysless WT Pgp [9]): 6 µM
Max Inhibition (%) of IAAP-labeling (cysless WT Pgp [9]): 72%
Modulation of ATP hydrolysis (all mutant Pgps; all mutant Pgps, inhibition measured in presence of verapamil 5 µM): stimulates ATP hydrolysis of the mutant Pgps with no exceptions

Transport function (Y307C mutant Pgp [1]): 90-100%
Transport function (V982C mutant Pgp [2]): 90-100%
Transport function (Q725C mutant Pgp [3]): 90-100%
Transport function (F343C mutant Pgp [4]): 90-100%
Transport function (F343C/V982C mutant Pgp [5]): 90-100%
Transport function (F978C mutant Pgp): 90-100%
Transport function (Q725C/V982C mutant Pgp [6]): 90-100%
Transport function (F728C mutant Pgp [7]): 90-100%
SMILES: COC(=O)c1ccccc1-c1c2ccc(=N)cc-2oc2cc(N)ccc12 [Rh123, rhodamine123]
